Tests used:
[1] = tested on: E. coli ESBL4 expressing CTX-M-15; assay: Broth microdilution MIC, E. coli ESBL4 CTX-M-15; format: cell-based; details: fixed 4 μg/mL ceftazidime; CAMHB, 16-20 hours at 37° C.
Excerpt: (§1) To determine the ability of test compounds to potentiate the inhibition of the growth of bacterial strains that produce beta-lactamase enzymes, classic cell based broth microdilution MIC assays were employed. Six bacteria strains producing beta-lactamase enzymes were used: E. coli expressing the Class A Extended Spectrum Beta-Lactamase (ESBL) CTX-M-15, E. cloacae expressing the Class C P99, K. pneumoniae expressing the Class A carbapenemase KPC-3, P. aeruginosa expressing the Class B carbapenemase VIM-2, K. pneumoniae expressing the class A carbapenemase KPC-2 and the class B carbapenemase VIM-4, and S. aureus producing the Class A penicillinase PC-1. The assay was conducted in Cation Adjusted Mueller Hinton Broth (CAMHB, BD #212322, BD Diagnostic Systems, Sparks, Md.). Bacteria strains were grown for 3-5 hours in CAMBH broth. Test compounds (Examples 1-30) were added to a microtiter plate in 2-fold serial dilutions in CAMHB in a final concentration range of 32 μg/mL to 0.25 μg/ml. An overlay of CAMHB containing a Beta-lactam was added to the compounds at a final static concentration of 4 μg/ml. […] In addition to the titration of test compounds the MICs of a panel of control beta-lactams is also tested to ensure the strains are behaving consistently from test to test. Once the test compound and antibiotics are added the plates can be inoculated according to CLSI broth microdilution method. After inoculation the plates are incubated for 16-20 hours at 37° C. then the Minimal Inhibitory Concentration (MIC) of the test compound is determined visually.
(§2) Using the methodology described above, examples of the current invention were evaluated for their ability to inhibit the growth of β-lactamase-producing bacteria in the presence of a β-lactam antibiotic.
(§3) Using the methodology described above in EXAMPLE III, exemplary compounds for Formula I or Formula Ia were evaluated for their ability to inhibit the growth of β-lactamase producing bacteria in the presence of a β-lactam antibiotic.

[2] = biological target: T1, p99 AmpC β-lactamase (Class C) (Enterobacter cloacae, UniProt P05364); assay: β-Lactamase inhibition, p99 AmpC; format: biochemical
T1 construct: made in house; host or cells: E. coli BL21(DE3)
T1 sequence (P05364 21-381): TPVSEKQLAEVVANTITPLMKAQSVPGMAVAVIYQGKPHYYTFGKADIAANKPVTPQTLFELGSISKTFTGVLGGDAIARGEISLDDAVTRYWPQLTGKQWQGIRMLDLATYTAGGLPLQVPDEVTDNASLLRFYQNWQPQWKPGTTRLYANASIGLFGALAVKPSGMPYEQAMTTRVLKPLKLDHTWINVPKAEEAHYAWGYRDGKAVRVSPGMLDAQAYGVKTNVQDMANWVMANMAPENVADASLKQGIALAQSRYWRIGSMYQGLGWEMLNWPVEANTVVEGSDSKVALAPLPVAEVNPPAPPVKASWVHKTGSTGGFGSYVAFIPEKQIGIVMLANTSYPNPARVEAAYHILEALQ
Description: (§4) For SHV-5, Kpc-2, p99AmpC and OXA-1 β-lactamases, E. coli BL21(DE3) bacterial cells carrying expression plasmids (expressed as native untagged proteins) for the individual β-lactamases were grown in 1 L of Superbroth (Teknova Inc. Hollister, Calif.) supplemented with 100 μg/ml kanamycin selection and 1×5052 (0.5% glycerol, 0.05% glucose and 0.2% α-lactose) at 35° C. for 18-20 hours. Cells were harvested by centrifugation (4,000×g, 4° C., 20 min), resuspended in 50 ml of 10 mM HEPES pH 7.5 ( 1/20 of the initial volume). The cells were lysed by sonication (5 pulses of 45 seconds) at 45 W on ice. The lysates were clarified by centrifugation at 10,000×g for 40 minutes at 4° C. Samples were diluted 5-fold in 50 mM sodium acetate pH 5.0, stored overnight at 4° C., after which they were centrifuged at 10,000×g for 30 minutes to clarify, and filtered through 0.45 μm filters. The samples were loaded onto a 5 ml Capto S sepharose cation exchange column (GE Healthcare) pre-equilibrated with 50 mM sodium acetate pH 5.0. The column was washed with 5 column volumes of 50 mM sodium acetate pH 5.0 to wash out unbound protein and a linear gradient of NaCl (0 to 500 mM) was used to elute the protein (over 16 CV) from the column. Fractions were assayed for β-lactamase activity using Centa (Calbiochem, Gibbstown, N.J.) or Nitrocefin (EMD Millipore chemicals, Darmstadt, Germany) as a reporter β-lactamase substrate for activity in the isolated fractions. Active fractions were pooled, concentrated and further purified by gel filtration chromatography on a Superdex 75 prep grade gel filtration column (GE Healthcare, Piscataway, N.J.) pre-equilibrated in 50 mM Hepes pH 7.5, 150 mM NaCl. Active fractions were pooled concentrated, quantitated by BCA protein determination (Thermo Scientific, Rockford, Ill.), dialyzed into PBS and frozen at −80° C. in 20% glycerol until use.
(§5) An equal volume of diluted enzyme stock was added, and the plates were incubated at 37° C. for 15 min. Nitrocefin was used as substrate for p99 AmpC, VIM-2 and OXA-1 and dispensed into each well at a final concentration of 100 μM. Absorbance at 486 nm was immediately monitored for 10 min using a Biotek Powerwave XS2 microplate spectrophotometer using the GEN5 software package (Biotek Instruments, Winooski Vt.). In an analogous fashion, imipenem was used as substrate for Kpc-2 and Cefotaxime was used for SHV-5, while changes in absorbance upon hydrolysis of the β-lactam ring were monitored at 300 nm and 260 nm respectively in UV-transparent 96-well microtiter assay plates. Maximum rates of hydrolysis were compared to those in control wells (without inhibitors), and percentages of enzyme inhibition were calculated for each concentration of inhibitor. The concentration of inhibitor needed to reduce the initial rate of hydrolysis of substrate by 50% (IC50) was calculated as the residual activity of β-lactamase at 486 nm using GraFit version 7 kinetics software package (Erithacus Software, Surrey, UK).
(§6) Using the methodology described above, examples of the current invention were evaluated for their ability to inhibit β-lactamase enzymes from all four Ambler classifications (A through D). […] NT=Not tested.

[3] = tested on: S. aureus MSSA-7 producing penicillinase PC-1; assay: Broth microdilution MIC, S. aureus MSSA-7 PC-1; format: cell-based; details: fixed 4 μg/mL piperacillin; CAMHB, 16-20 hours at 37° C.
Excerpt: as §1, §2, §3

[4] = biological target: T2, VIM-2 metallo-β-lactamase (Class B) (Pseudomonas aeruginosa, UniProt Q9K2N0); assay: β-Lactamase inhibition, VIM-2; format: biochemical; details: nitrocefin 100 μM, 486 nm; 15 min preincubation at 37° C., PBS pH 7.4
T2 construct: made in house; host or cells: E. coli BL21(DE3)
Description: For Vim-2 metallo β-lactamase, the procedure was identical with the following exceptions, first the protein was not pH adjusted to pH 5 with 50 mM sodium acetate, second, the chromatography step was changed to a 5 ml Q sepharose anion exchange column pre-equilibrated with 50 mM Hepes pH 7.5, and elution of the protein was achieved by a linear gradient of NaCl (0-600 mM). Finally, the VIM-2 purification required a second run (3rd step) on the Q sepharose anion exchange column to achieve acceptable purity (>90%).
as §5, §6

[5] = biological target: T3, OXA-1 β-lactamase (Class D oxacillinase) (Escherichia coli, UniProt P13661); assay: β-Lactamase inhibition, OXA-1; format: biochemical; details: nitrocefin 100 μM, 486 nm; 15 min preincubation at 37° C., PBS pH 7.4
T3 construct: made in house; host or cells: E. coli BL21(DE3)
T3 sequence (P13661 26-276): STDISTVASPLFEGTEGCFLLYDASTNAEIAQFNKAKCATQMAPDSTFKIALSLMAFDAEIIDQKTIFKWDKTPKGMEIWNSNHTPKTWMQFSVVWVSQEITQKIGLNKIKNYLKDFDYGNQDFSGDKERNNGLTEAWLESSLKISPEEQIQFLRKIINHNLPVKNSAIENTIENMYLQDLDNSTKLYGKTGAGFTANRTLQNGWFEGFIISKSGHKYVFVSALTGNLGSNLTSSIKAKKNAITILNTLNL
Description: as §4, §5, §6

[6] = tested on: K. pneumoniae A-1797 expressing KPC-2 and VIM-4; assay: Broth microdilution MIC, K. pneumoniae A-1797 KPC-2/VIM-4; format: cell-based; details: fixed 4 μg/mL meropenem; CAMHB, 16-20 hours at 37° C.
Excerpt: as §1, §2, §3

[7] = tested on: P. aeruginosa Ps296 expressing VIM-2; assay: Broth microdilution MIC, P. aeruginosa Ps296 VIM-2; format: cell-based; details: fixed 4 μg/mL meropenem; CAMHB, 16-20 hours at 37° C.
Excerpt: as §1, §2, §3

[8] = biological target: T4, KPC-2 β-lactamase (Class A carbapenemase) (Klebsiella pneumoniae, UniProt Q9F663); assay: β-Lactamase inhibition, KPC-2; format: biochemical; details: imipenem substrate, 300 nm; 15 min preincubation at 37° C., PBS pH 7.4
T4 construct: made in house; host or cells: E. coli BL21(DE3)
T4 sequence (Q9F663 25-293, looked up): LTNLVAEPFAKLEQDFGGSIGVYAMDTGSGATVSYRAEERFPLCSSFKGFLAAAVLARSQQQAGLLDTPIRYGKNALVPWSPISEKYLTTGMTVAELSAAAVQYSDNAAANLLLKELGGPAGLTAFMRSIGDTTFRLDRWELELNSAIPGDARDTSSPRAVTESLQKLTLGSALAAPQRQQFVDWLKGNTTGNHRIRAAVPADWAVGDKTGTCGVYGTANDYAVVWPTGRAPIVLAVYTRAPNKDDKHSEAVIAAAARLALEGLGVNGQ
Description: as §4, §5, §6

[9] = biological target: T5, SHV-5 β-lactamase (Class A ESBL) (Klebsiella pneumoniae, UniProt P0A3M1); assay: β-Lactamase inhibition, SHV-5; format: biochemical
T5 construct: made in house; host or cells: E. coli BL21(DE3)
T5 sequence (P0A3M1 22-286): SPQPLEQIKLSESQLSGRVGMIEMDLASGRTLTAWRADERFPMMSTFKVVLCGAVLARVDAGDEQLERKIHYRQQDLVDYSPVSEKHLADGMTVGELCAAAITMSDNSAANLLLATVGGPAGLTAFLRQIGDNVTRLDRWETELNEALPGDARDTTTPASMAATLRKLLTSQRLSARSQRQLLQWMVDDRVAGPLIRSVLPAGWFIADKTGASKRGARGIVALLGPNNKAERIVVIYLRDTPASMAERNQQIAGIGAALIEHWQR
Description: as §4, §5, §6

[10] = tested on: E. cloacae 144200 expressing Class C P99 AmpC; assay: Broth microdilution MIC, E. cloacae 144200 p99 AmpC; format: cell-based; details: fixed 4 μg/mL ceftazidime; CAMHB, 16-20 hours at 37° C.
Excerpt: as §1, §2, §3

[11] = tested on: K. pneumoniae 156319 expressing KPC-3; assay: Broth microdilution MIC, K. pneumoniae 156319 KPC-3; format: cell-based; details: fixed 4 μg/mL meropenem; CAMHB, 16-20 hours at 37° C.
Excerpt: as §1, §2, §3

Row | Structure (SMILES) | MIC of example compound in presence of fixed β-lactam: Fixed CAZ, E. coli ESBL4 CTX-M-15 [1] | IC50 [2] | MIC of example compound in presence of fixed β-lactam: Fixed Pip, S. aureus MSSA-7 PC-1 [3] | IC50 [4] | IC50 [5] | MIC of example compound in presence of fixed β-lactam: Fixed Mero, K. P. A-1797 KPC-2 VIM-4 [6] | MIC of example compound in presence of fixed β-lactam: Fixed Mero, P. aerug. Ps296 VIM-2 [7] | IC50 [8] | IC50 [9] | MIC of example compound in presence of fixed β-lactam: Fixed CAZ, E. cl. 144200 p99 AmpC [10] | MIC of example compound in presence of fixed β-lactam: Fixed Mero, K. P. 156319 KPC-3 [11]
1 | NC1CCN(CC(=O)N[C@H]2Cc3cccc(C(=O)O)c3OB2O)CC1 [Example 1, 3-[2-(4-Amino-piperidin-1-yl)-acetylamino]-2-hydroxy-3,4-dihydro-2H-benzo[e][1,2]oxaborinine-8-carboxylic acid] | C (the MIC in the presence of <4 μg/mL of a β-lactamase inhibitor) | < 100 nM | C (the MIC in the presence of <4 μg/mL of a β-lactamase inhibitor) | 10000 to 100000 nM | 100 to 1000 nM | A (an MIC of the fixed β-lactam antibiotic in the presence of >32 μg/mL of a β-lactamase inhibitor) | A (an MIC of the fixed β-lactam antibiotic in the presence of >32 μg/mL of a β-lactamase inhibitor) | < 100 nM | < 100 nM | B (the MIC in the presence of between 8 and 32 μg/mL of a β-lactamase inhibitor) | –
2 | O=C(CN1CCN(c2ccccn2)CC1)N[C@H]1Cc2cccc(C(=O)O)c2OB1O [Example 2, 2-Hydroxy-3-[2-(4-pyridin-2-yl-piperazin-1-yl)-acetylamino]-3,4-dihydro-2H-benzo[e][1,2]oxaborinine-8-carboxylic acid] | C (the MIC in the presence of <4 μg/mL of a β-lactamase inhibitor) | < 100 nM | C (the MIC in the presence of <4 μg/mL of a β-lactamase inhibitor) | 1000 to 10000 nM | 100 to 1000 nM | A (an MIC of the fixed β-lactam antibiotic in the presence of >32 μg/mL of a β-lactamase inhibitor) | A (an MIC of the fixed β-lactam antibiotic in the presence of >32 μg/mL of a β-lactamase inhibitor) | 100 to 1000 nM | < 100 nM | C (the MIC in the presence of <4 μg/mL of a β-lactamase inhibitor) | B (the MIC in the presence of between 8 and 32 μg/mL of a β-lactamase inhibitor)
3 | CN(C)CCN1CCN(CC(=O)N[C@H]2Cc3cccc(C(=O)O)c3OB2O)CC1 [Example 3, 3-{2-[4-(2-Dimethylamino-ethyl)-piperazin-1-yl]-acetylamino}-2-hydroxy-3,4-dihydro-2H-benzo[e][1,2]oxaborinine-8-carboxylic acid] | C (the MIC in the presence of <4 μg/mL of a β-lactamase inhibitor) | < 100 nM | C (the MIC in the presence of <4 μg/mL of a β-lactamase inhibitor) | 1000 to 10000 nM | 100 to 1000 nM | B (the MIC in the presence of between 8 and 32 μg/mL of a β-lactamase inhibitor) | C (the MIC in the presence of <4 μg/mL of a β-lactamase inhibitor) | < 100 nM | < 100 nM | C (the MIC in the presence of <4 μg/mL of a β-lactamase inhibitor) | C (the MIC in the presence of <4 μg/mL of a β-lactamase inhibitor)
4 | O=C(CN1CCNCC1)N[C@H]1Cc2cccc(C(=O)O)c2OB1O [Example 4, 2-Hydroxy-3-(2-piperazin-1-yl-acetylamino)-3,4-dihydro-2H-benzo[e][1,2]oxaborinine-8-carboxylic acid] | C (the MIC in the presence of <4 μg/mL of a β-lactamase inhibitor) | < 100 nM | C (the MIC in the presence of <4 μg/mL of a β-lactamase inhibitor) | 1000 to 10000 nM | 100 to 1000 nM | B (the MIC in the presence of between 8 and 32 μg/mL of a β-lactamase inhibitor) | B (the MIC in the presence of between 8 and 32 μg/mL of a β-lactamase inhibitor) | < 100 nM | < 100 nM | C (the MIC in the presence of <4 μg/mL of a β-lactamase inhibitor) | C (the MIC in the presence of <4 μg/mL of a β-lactamase inhibitor)

— US10294248B2, “Beta-lactamase inhibitors” (VenatoRx Pharmaceuticals, Inc., priority 2013, dated 2019)
